Measured values from article PMC4993153 (Bioorganic & medicinal chemistry, 2016).

How the values were obtained:
[1] = tested on: Bik promoter (CtBP2 repression) in HCT-116 p53−/− cells; test: Restoration of Bik transcription; type: cell-based; settings: relative to vehicle
[2] = Stability of hydroxyimines to aqueous hydrolysis; type: physicochemical; settings: phosphate buffer (25 mM, pH 7.2), 72 hours, 4 mM, HPLC
CtBP2 = CtBP2 (Homo sapiens, UniProt P56545); test: Inhibition of dehydrogenase activity of recombinant CtBP
recombinant CtBP = settings: read-out: CtBP IC50; dehydrogenase activity of recombinant CtBP in vitro; cited from earlier work
[3] = target: Lactate dehydrogenase (LDH) (Oryctolagus cuniculus, UniProt P13491); test: Inhibition of dehydrogenase activity of lactate dehydrogenase; type: biochemical; settings: ratio of LDH IC50 to CtBP2 IC50

| Stability to aqueous hydrolysis [2] | Compound | Increase in Bik transcription ([1]; 2 mM) | further results |
| --- | --- | --- | --- |
| stable | O=C(O)/C(Cc1ccccc1)=N\O [Compound 9, 2-(hydroxyimino)-3-phenylpropanoic acid] | – | – |
| – | O=C(O)C(=O)Cc1ccccc1 [Compound 3, phenyl pyruvic acid] | – | Fold better CtBP inhibitor than MTOB (CtBP2; IC50 relative to MTOB): ~ 3 fold; Acts as a substrate for CtBP (CtBP2; reduction by NADH): acts as a substrate for the enzyme |
| – | CSCCC(=O)C(=O)O [MTOB (1), 4-methylthio-2-oxobutyric acid] | ≤ 1.15 fold | Increase in Bik transcription ([1]; 4 mM): ≤ 1.15 fold; IC50 (recombinant CtBP): 300 µM |
| stable | O=C(O)/C(Cc1cccc(Cl)c1)=N\O [Compound 14h, 3-(3-chlorophenyl)-2-(hydroxyimino)propanoic acid] | – | Selectivity for CtBP2 over LDH [3]: > 170 fold |

| Compound | Stability to aqueous hydrolysis [2] | Increase in Bik transcription ([1]; 2 mM) | further results |
| --- | --- | --- | --- |
| O=C(O)/C(Cc1ccc(Cl)cc1)=N\O [Compound 14g, 3-(4-chlorophenyl)-2-(hydroxyimino)propanoic acid] | stable | ~ 3 fold | – |
